SMILES strings stand for the structures.

As a reminder, the residual activity is the signal under treatment as a percentage of the control signal.

Some targets named below: PRKCH (human) (UniProt P24723); CDK1 CCNA2 (human) (UniProt P06493+P20248); CDK1 CCNB1 (human) (UniProt P06493+P14635); CDK2 CCNA2 (human) (UniProt P24941+P20248); CSNK1A1 (human) (UniProt P48729); DYRK1B (human) (UniProt Q9Y463); FYN (human) (UniProt P06241); LTK (human) (UniProt P29376); STK33 (human) (UniProt Q9BYT3); CDK2 CCNE1 (human) (UniProt P24941+P24864); CDK3 CCNE1 (human) (UniProt Q00526+P24864); CDK4 CCND1 (human) (UniProt P24385+P11802); CDK4 CCND3 (human) (UniProt P30281+P11802); CDK5 CDK5R1 p25 (human) (UniProt Q00535+Q15078); CDK5 CDK5R1 p35 (human) (UniProt Q00535+Q15078); CDK6 CCND1 (human) (UniProt Q00534+P24385); CDK6 CCND3 (human) (UniProt P30281+Q00534); CDK7 CCNH MNAT1 (human) (UniProt P50613+P51948+P51946); CDK9 CCNK (human) (UniProt O75909+P50750); CDK9 CCNT1 (human) (UniProt P50750+O60563); MAP3K7 TAB1 (human) (UniProt O43318+Q15750).

Common to all, as to experiment: radiometric filter-binding kinase assay, Kinase HotSpot
Holding throughout (settings): compound 0.5 µM; ATP 10 µM

Sequence of STK33 (human) (Q9BYT3 whole entry, looked up): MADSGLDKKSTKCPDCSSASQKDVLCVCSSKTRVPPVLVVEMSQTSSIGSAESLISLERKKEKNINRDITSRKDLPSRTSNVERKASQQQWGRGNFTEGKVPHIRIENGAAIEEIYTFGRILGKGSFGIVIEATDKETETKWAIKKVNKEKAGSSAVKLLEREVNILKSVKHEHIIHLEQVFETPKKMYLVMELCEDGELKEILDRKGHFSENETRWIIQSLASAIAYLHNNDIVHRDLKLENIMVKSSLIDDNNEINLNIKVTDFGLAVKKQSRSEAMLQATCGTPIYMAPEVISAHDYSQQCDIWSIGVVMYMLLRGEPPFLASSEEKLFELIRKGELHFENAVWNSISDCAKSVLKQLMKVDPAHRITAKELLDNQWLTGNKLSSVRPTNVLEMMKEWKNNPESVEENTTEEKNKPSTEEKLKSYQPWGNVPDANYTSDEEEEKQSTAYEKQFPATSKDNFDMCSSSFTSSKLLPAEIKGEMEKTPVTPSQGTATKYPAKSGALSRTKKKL
Sequence of DYRK1B (human) (Q9Y463 whole entry, looked up): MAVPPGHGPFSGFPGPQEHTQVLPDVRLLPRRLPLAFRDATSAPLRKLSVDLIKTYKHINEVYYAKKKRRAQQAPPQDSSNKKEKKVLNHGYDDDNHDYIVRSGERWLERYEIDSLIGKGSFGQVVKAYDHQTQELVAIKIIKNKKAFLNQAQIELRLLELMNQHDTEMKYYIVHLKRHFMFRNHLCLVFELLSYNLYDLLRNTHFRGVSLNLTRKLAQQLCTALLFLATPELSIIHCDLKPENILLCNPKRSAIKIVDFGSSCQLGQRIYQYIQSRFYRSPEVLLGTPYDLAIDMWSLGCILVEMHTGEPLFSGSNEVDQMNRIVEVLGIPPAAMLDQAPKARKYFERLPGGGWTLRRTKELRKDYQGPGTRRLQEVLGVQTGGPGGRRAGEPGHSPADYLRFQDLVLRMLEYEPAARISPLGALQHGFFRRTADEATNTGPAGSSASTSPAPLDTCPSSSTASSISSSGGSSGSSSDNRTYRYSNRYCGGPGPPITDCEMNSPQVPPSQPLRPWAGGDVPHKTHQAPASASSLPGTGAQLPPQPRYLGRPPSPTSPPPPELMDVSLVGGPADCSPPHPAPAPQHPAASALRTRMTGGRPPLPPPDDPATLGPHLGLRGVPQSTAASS
Sequence of PRKCH (human) (P24723 whole entry, looked up): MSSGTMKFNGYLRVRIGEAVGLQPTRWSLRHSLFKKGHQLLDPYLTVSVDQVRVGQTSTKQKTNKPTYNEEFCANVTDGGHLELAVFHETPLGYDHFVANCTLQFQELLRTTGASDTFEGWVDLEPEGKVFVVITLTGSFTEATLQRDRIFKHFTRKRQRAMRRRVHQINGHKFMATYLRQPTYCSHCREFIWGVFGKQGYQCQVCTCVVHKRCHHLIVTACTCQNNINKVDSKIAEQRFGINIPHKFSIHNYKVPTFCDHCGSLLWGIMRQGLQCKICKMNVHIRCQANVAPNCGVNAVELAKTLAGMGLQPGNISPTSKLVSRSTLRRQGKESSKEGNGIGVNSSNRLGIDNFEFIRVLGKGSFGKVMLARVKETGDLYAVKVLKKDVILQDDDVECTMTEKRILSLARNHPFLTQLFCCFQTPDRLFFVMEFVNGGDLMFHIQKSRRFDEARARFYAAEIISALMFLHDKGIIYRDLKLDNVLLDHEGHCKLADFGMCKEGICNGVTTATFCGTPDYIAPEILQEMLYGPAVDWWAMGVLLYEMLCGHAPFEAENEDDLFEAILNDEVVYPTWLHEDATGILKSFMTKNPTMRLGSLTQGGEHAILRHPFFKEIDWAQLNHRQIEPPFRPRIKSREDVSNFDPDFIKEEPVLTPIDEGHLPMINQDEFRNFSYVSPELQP
Sequence of LTK (human) (P29376 whole entry, looked up): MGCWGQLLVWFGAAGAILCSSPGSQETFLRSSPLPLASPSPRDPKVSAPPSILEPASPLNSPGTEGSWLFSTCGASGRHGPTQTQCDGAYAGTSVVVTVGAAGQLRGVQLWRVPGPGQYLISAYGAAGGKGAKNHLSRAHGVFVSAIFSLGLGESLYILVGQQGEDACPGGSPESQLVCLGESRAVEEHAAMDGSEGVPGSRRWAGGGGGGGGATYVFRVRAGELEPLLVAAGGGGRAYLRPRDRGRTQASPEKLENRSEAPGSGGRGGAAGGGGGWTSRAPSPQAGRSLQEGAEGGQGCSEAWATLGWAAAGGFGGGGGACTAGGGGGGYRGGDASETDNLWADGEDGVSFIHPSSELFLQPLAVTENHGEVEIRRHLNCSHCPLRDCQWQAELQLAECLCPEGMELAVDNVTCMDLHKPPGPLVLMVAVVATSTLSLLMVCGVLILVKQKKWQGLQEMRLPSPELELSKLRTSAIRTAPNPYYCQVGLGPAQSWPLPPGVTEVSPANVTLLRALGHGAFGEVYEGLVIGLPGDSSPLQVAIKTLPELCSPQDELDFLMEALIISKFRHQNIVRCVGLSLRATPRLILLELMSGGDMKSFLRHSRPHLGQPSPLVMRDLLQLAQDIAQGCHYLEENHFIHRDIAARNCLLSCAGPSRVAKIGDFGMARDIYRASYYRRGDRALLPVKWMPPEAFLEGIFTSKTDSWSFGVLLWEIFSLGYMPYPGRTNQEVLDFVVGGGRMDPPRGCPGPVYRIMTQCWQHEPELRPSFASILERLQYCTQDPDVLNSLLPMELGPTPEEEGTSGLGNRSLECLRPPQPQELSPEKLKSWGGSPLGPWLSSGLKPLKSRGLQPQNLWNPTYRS
Sequence of CDK2 CCNA2 (human) (P20248 whole entry, looked up, other chains not shown): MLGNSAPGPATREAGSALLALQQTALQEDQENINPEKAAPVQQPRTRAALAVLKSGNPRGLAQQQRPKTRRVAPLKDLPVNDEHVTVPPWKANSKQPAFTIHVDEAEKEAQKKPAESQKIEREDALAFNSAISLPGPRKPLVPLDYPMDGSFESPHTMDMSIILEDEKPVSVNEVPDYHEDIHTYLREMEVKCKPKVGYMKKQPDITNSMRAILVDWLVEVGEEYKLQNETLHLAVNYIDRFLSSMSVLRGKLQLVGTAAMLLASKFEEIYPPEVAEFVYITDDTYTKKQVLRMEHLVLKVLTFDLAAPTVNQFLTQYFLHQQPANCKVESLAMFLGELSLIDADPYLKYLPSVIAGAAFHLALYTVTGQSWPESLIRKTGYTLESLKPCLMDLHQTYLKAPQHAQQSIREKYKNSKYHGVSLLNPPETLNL
Sequence of CDK1 CCNA2 (human) (P06493 whole entry, looked up): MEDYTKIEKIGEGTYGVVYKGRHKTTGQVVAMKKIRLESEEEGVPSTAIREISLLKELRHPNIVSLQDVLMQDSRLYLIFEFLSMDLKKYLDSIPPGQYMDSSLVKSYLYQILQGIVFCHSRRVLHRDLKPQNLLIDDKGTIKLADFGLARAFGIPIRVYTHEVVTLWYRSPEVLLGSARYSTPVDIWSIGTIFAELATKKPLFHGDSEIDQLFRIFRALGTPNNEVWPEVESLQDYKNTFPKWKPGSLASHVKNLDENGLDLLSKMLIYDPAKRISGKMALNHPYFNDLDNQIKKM
Sequence of CDK1 CCNA2 (human) (P20248 whole entry, looked up): as the sequence (P20248 whole entry, looked up, other chains not shown) above
Sequence of CDK1 CCNB1 (human) (P06493 whole entry, looked up): as the sequence (P06493 whole entry, looked up) above
Sequence of CDK1 CCNB1 (human) (P14635 whole entry, looked up): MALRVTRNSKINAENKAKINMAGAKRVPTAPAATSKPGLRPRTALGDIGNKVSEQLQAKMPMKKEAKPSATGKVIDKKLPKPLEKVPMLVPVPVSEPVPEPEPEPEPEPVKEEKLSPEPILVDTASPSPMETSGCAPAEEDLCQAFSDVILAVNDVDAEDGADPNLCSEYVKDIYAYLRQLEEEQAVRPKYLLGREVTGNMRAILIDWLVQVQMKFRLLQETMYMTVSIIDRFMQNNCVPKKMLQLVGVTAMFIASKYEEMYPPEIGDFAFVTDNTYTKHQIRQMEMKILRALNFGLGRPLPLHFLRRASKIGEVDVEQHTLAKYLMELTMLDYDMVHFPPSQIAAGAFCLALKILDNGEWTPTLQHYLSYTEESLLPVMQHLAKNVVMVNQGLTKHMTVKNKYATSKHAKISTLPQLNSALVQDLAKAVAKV
Sequence of CDK3 CCNE1 (human) (P24864 whole entry, looked up): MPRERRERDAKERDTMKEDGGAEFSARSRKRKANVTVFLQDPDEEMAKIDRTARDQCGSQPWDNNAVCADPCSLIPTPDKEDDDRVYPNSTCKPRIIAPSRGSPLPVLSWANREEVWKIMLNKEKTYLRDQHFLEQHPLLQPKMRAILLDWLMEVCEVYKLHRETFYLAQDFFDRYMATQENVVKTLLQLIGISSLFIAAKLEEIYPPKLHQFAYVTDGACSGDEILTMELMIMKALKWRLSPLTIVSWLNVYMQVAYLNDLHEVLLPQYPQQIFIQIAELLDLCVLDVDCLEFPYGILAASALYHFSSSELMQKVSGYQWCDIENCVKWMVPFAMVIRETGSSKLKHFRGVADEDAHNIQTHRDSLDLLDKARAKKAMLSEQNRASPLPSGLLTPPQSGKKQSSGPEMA
Sequence of CDK3 CCNE1 (human) (Q00526 whole entry, looked up): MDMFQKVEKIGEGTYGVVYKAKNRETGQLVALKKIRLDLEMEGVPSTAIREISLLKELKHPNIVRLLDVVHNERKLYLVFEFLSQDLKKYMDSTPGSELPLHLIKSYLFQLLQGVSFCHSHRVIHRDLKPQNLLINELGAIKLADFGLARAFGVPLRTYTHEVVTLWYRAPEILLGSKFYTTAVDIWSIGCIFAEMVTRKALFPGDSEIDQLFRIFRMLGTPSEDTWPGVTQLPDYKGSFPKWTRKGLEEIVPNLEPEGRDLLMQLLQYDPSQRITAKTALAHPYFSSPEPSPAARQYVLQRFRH
Sequence of CDK2 CCNE1 (human) (P24864 whole entry, looked up, other chains not shown): as the sequence (P24864 whole entry, looked up) above

With `NC(=O)Nc1sc(-c2ccc(F)cc2)cc1C(N)=O`, at PRKCH (human), the residual activity was found to be 83.5%.
On the same count and under the same terms, under `NC(=O)c1ccc2[nH]c(-c3ccc(Oc4ccc(Cl)cc4)cc3)nc2c1` stands 93.4%.
In the case of `COc1cc(OC)c(/C=C2\C(=O)Nc3ccccc32)c(OC)c1`, the residual activity amounted to 103% on CDK1 CCNA2 (human); 83% on CDK1 CCNB1 (human); 96.3% on CDK2 CCNA2 (human); 59.6% at CSNK1A1 (human); 99% at DYRK1B (human); 100% at FYN (human). For the same molecule, the residual activity was found to be 95.3% at LTK (human), 82.2% on PRKCH (human) and 89.5% at STK33 (human).
Turning to `O=C1c2ccccc2-[n+]2ccc3c([nH]c4ccccc43)c21`, the residual activity at CDK1 CCNA2 (human) amounted to 68%; at CDK2 CCNA2 (human) it was 72.4%; on CDK2 CCNE1 (human) it was 80.3%; at CDK3 CCNE1 (human) it was 80.1%; on DYRK1B (human), 98.7%; on LTK (human) it was 121%. Moreover, the residual activity at PRKCH (human) worked out at 87.1%; on STK33 (human), 101%.
As to `c1cc(-c2cnn3cc(-c4ccc(OCCN5CCCCC5)cc4)cnc23)ccn1`, the residual activity turned out to be 92.2% at CDK1 CCNA2 (human); 79.3% on CDK1 CCNB1 (human); 87.7% at CDK2 CCNA2 (human); 77.5% on CDK2 CCNE1 (human); 89.9% on CDK3 CCNE1 (human); 35.3% at CDK4 CCND1 (human). The residual activity at CDK4 CCND3 (human) was 60.7%; at CDK5 CDK5R1 p25 (human) it was 68.2%; on CDK5 CDK5R1 p35 (human), 67.7%; at CDK6 CCND1 (human), 21.2%; at CDK6 CCND3 (human), 14.8%; at CDK7 CCNH MNAT1 (human), 83.7%. In addition, the residual activity at CDK9 CCNK (human) is 36.7%; on CDK9 CCNT1 (human), 65%; at DYRK1B (human), 26.2%; on LTK (human), 95.4%; on MAP3K7 TAB1 (human), 49.7%; on PRKCH (human) it was 95%. Moreover, at STK33 (human), the residual activity worked out at 37.4%.
On to `Cc1ccc(NC(=O)c2ccc(CN3CCN(C)CC3)cc2)cc1Nc1nccc(-c2cccnc2)n1`, for which the residual activity on CDK1 CCNB1 (human) was 103%; at CDK3 CCNE1 (human), 97.5%; at CDK4 CCND1 (human), 97.5%; on CDK4 CCND3 (human), 107%; at CDK5 CDK5R1 p25 (human) it was 98.1%; at CDK5 CDK5R1 p35 (human), 103%. In addition, the residual activity was found to be 99% at CDK6 CCND1 (human); 103% on CDK6 CCND3 (human); 101% on CDK7 CCNH MNAT1 (human); 103% at CDK9 CCNK (human); 100% on CDK9 CCNT1 (human); 97.9% on DYRK1B (human). The residual activity on LTK (human) was 100%.

For the origin of these results see the kinase profiling compilation of Christmann-Franck et al. (2016).
